# Values quoted from earlier work as cited in US20070259967A1, “Methods of Diagnosis” (priority 2004, published 2007).
# How the values were obtained:
# [1] = majority of the cited clinical studies of selegiline in ADHD
# [2] = amphetamine administered to children with ADHD; Zametkin et al. 1984
# Platelet MAO-B = biological target: T1, Platelet MAO-B (Homo sapiens, UniProt P27338); settings: 0.24 mM pargyline added as blank; 20 μM PEA, 37° C., 30 minutes; method from Zhou et al.
# T1 construct: the platelet pellet was resuspended with saline to obtain a concentration of 107 platelets/ml and then sonicated for 10 seconds; from tissue; host or cells: blood platelets (platelet rich plasma from fasting venous blood)
# T1 sequence (P27338 1-520): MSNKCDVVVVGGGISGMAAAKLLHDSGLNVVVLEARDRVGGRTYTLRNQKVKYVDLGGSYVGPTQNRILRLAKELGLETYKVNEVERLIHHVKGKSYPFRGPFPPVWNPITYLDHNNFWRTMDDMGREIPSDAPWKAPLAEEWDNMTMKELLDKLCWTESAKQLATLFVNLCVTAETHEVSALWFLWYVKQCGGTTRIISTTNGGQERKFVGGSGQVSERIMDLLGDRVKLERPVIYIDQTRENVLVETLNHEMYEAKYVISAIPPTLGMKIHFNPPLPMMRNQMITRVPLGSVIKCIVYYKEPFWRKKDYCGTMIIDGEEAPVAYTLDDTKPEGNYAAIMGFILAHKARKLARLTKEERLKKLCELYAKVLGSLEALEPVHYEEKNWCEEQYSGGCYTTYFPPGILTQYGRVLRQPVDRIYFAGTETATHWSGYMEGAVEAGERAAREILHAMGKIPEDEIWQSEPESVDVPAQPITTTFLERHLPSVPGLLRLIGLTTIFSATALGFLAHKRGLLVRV
smiles,measurement,setting,value
C#CCN(C)[C@H](C)Cc1ccccc1.Cl [selegiline],benefit to ADHD patients compared with psycho-stimulant treatment,[1],less benefit to the patients than psycho-stimulant treatment
CC(N)Cc1ccccc1 (stereo not drawn) [amphetamine],increase in the excretion of urinary phenylethylamine (PEA),[2],1600%
C#CCN(C)Cc1ccccc1 [pargyline],production of PAA (phenylacetic acid),Platelet MAO-B,no production of PAA
